Test results as given in article PMC12677843, “Multidisciplinary Preclinical Investigations on Ferrocenyl, Ruthenocenyl, and Benzyl Derivatives of Niridazole as New Drug Candidates against Schistosomiasis” (Chemmedchem, 2025).
Entries after “also recorded” stand apart in the source; their conditions may differ.

How the values were obtained:
adult S. mansoni = assay: In vitro drug sensitivity assay on adult S. mansoni (microscopic viability scoring); type: cell-based, Schistosoma mansoni; settings: for drug effect at 50 µM on adult S. mansoni: 72 h incubation, normalized to DMSO control, active if ≥60%; for EC50: 72 h drug exposure, 37 °C, 5% CO2, read-out: EC50 on adult S. mansoni, 72 h
Description: Figure 3 In vitro activity at 50 µM of the 12 compounds on adult S. mansoni. Adult schistosomes were incubated in culture media for 72 h at 37 °C and 5% CO2 with either compound (50 µM) or a DMSO (0.5%) control. The viability of the worms was microscopically evaluated and scored (0—3, in 0.5 steps) every 24 h. Results are from two independent experiments, each performed in duplicate. Drug activities were normalized to the DMSO controls. Data represent mean ± SD in percentage of DMSO control. […]
In vitro evaluation on adult S. mansoni
After a week for acclimatization to the new environment with controlled conditions (temperature: 22 °C ± 2 °C, humidity: 50 % ± 10 %, 12:12 h light/dark photocycle), four-week-old female NMRI mice (Charles River, Sulzfeld, Germany) were subcutaneously infected with approximately 100 cercariae to establish the S. mansoni infection. In the S. mansoni infected mice the worms were allowed to develop for 7 weeks into the adult stage, before they were extracted from the mesenteric veins of the euthanized mice. The adult worms were placed into RPMI 1640 (Gibco, Waltham MA, USA) medium supplemented with 1 % penicillin/streptomycin mixture and 5 % iFCS at 37 °C and 5 % CO 2. The drug sensitivity assay was set up in a 24-well plate with two wells containing each two pairs of S. mansoni worms per compound and concentration.
The final volume per well was 2 mL, containing the culture medium and the corresponding amount of drug dissolved in DMSO. The maximum concentration tested was 50 µM, corresponding to 0.5 % DMSO, to which all the other wells were adapted […]
to, so that all test concentrations contained always the same amount of DMSO.
Additionally, 2 wells with negative controls containing only DMSO and the culture medium were included. After an incubation period of 72 h at 37 °C and 5 % CO 2, the worms were microscopically evaluated. The drug effect was determined 24, 48 and 72 h post-exposure based on the phenotype of the adult worms, using a viability scale ranging from three referring to viable, motile worms with no change in their tegument to zero standing for the death of the worms.
All described in vitro studies with mice involved, were conducted at the Swiss Tropical and Public Health Institute, first in Basel, later in Allschwil, and had the approval by the corresponding veterinary authorities of the Canton Basel-Stadt (permit no. 2070)

juvenile S. mansoni = assay: In vitro drug sensitivity assay on juvenile S. mansoni; type: cell-based, Schistosoma mansoni; settings: 72 h incubation, 37 °C, 5% CO2
Description: Juvenile worms were gained through cultivation of NTS as previously described. 10 In short, NTS were obtained as described above, then directly after the mechanical transformation process the newly transformed schistosomula were placed in a special culturing medium. The culture medium consists of Panserin 401, w: L-Glutamine, serum free all-round medium (Pan Biotech, Aidenbach, Germany) supplemented with 20 % human serum and 500 U/mL penicillin, […] streptomycin (LuBioScience, Switzerland). 96-well transparent polystyrene flat bottom plates were used for the in vitro growth procedure, with 40 to 60 NTS per well in 100 µL culture medium. The bordering wells of the plate were filled solely with medium to counteract evaporation and to keep the humidity as steady as possible. The plates were incubated for 21 days at 5 % CO2 and at 37 °C, with regular medium changes every 3 to 4 days. After the 21 days culturing period, the schistosomulae developed into juveniles. For the drug sensitivity assay, juvenile worms were incubated over 72 h (5 % CO 2 and 37 °C) with the test compound in the same medium, as used for the culturing process. In a 96-well plate, 250 µL medium containing the test compound and six juvenile worms, ideally of both sexes were placed in each well. All compounds were tested twice independently at 50, 10, 5 and 1 µM in duplicates. The viability of the worms was evaluated microscopically after 24, 48 and 72 h of continuous drug exposure using the same phenotypic screening method as described before. […]

[1] = Stability of A2 in DMSO-d6 with D2O (4:1) by 1H NMR; type: physicochemical; settings: Figure S36; DMSO-d6 with D2O (4:1, v/v)
Description: Figure S31 DEPT spectrum of C2
1H NMR spectra for stability
Preparation of the control samples for 1H NMR analysis: Compounds B1, D1, A3 and
C2 were dissolved in DMSO- d6. Compound A2 was dissolved in DMSO- d6 with D2O
(4:1, v/v). NMR spectra were recorded in deuterated solvents on Bruker Avance-400
in the room temperature for 0, 6, 24, 30 and 48 hours or 0, 3, 6 and 24 hours. […]

[2] = system: S. mansoni newly transformed schistosomula (NTS); assay: In vitro evaluation on newly transformed schistosomula (NTS); type: cell-based, Schistosoma mansoni; settings: for EC50: 72 h incubation, 37 °C, 5% CO2
Description: 2. Experimental section for biological experiments
Stock solutions of the test compounds
Stock solution of a concentration of 10 mM in pure DMSO (Sigma-Aldrich, Switzerland) were prepared of the 12 compounds, these stock solutions were used for all in vitro evaluations from activity tests in S. mansoni to the cytotoxic determinations in HUH7 hepatocyte-derived carcinoma cells, and in SH-SY5Y neuroblastoma cells.
The solutions were thoroughly vortexed and sonicated to enable a good dissolution of the compounds and homogenous stock solutions.
2.1 In vitro evaluations in S. mansoni
In vitro evaluation on newly transformed schistosomula (NTS)
To obtain newly transformed schistosomula (NTS) the lifecycle of S. mansoni (strain originates from West Africa, Liberia) is maintained at the Swiss Tropical and Public Health Institute (Swiss TPH). As previously described, cercariae are collected from infected Biomphalaria glabrata snails and then mechanically transformed into NTS. 8 After HBSS (Gibco, Waltham MA, USA) washing to get rid of the detached tails, the NTS were kept overnight (min. 12 h, max. 24 h) in culture medium at 37 °C and 5 % CO2 to complete their transformation process, before the drug sensitivity assay was started. The drug assays were performed in the same culture medium consisting of medium M199 (Gibco, Waltham MA, USA) supplemented with 5 % v/v inactivated fetal calf serum (iFCS; Bioconcept AG, Allschwil, Switzerland), 1% antibiotics mixture developed by Mäser et al., 9 and 1 % penicillin 10,000 U/mL, and streptomycin 10 mg/mL solution (Sigma-Aldrich, Buchs, Switzerland). The assay was performed in a 96-well plate, with 30−40 NTS per well in a final volume of 250 μL. NTS incubated in culture medium containing 0.5 % DMSO but no drug served as negative controls.
Microscopic evaluation was performed after 24, 48 and 72 h of incubation of the parasites at 37 °C and 5 % CO 2. Their overall viability was scored from 0 (death) to 3 (full viability) by a phenotypic screening method based on their motility, morphology, […]
and granularity. […]

SH-SY5Y cells = assay: SYTOX cell viability assay, SH-SY5Y; type: cell-based, human; settings: 20 µM, 24 h, serum-free charcoal-treated medium, vs DMSO control (0.2%), mean
Description: The SYTOX cell viability assay was performed in SHSY5Y cells. Cells were treated with either compound (20 µM) or DMSO control (0.2%) for 24 h at 37 °C and 5% CO2 in serum‐free charcoal‐treated medium. Results were normalized to the DMSO control. Mean ± SD was calculated from three independent experiments, each performed in quadruplicate. […]
serum-free media containing either treatment at a concentration of 20 µM or DMSO (ITW Reagents Cat A3672) control (0.2 %).
Following 24 h of incubation, 12.5 μL of an XTT/phenazine methosulfate (PMS) (XTT Sigma Aldrich cat X4626, PMS Serva CAT: 3203) 0.02solution (1 mg/mL XTT and 7.5 μg/mL PMS) was added to each well. Absorbance was measured using a microplate reader (Biotek Synergy HT) at 450 nm (signal) and 650 nm (background), 2 h after the addition of the XTT/PMS solution. Individual backgrounds were subtracted and all results were normalized to DMSO control. Mean ± SD was determined from three independent experiments, each performed in quintuplicate.
SYTOX cell viability assay
The cytotoxic potential was additionally evaluated using the staining-based SYTOX viability assay. […] Data was acquired on the BioTeck Cytation5 microscope and evaluated by the manufacturer’s software (Gen5 Image Prime Version 3.12). […] Mean ± SD was determined from three independent experiments, each performed in quadruplicate. […]

Compound	mean drug effect at 10 µM on adult S. mansoni, 24 h (adult S. mansoni; 10 µM, 24 h, in percentage of DMSO control)	mean drug effect at 10 µM on adult S. mansoni, 48 h (adult S. mansoni; 10 µM, 48 h, in percentage of DMSO control)	mean drug effect at 10 µM on adult S. mansoni, 72 h (adult S. mansoni; 10 µM, 72 h, in percentage of DMSO control)	drug effect at 50 µM on adult S. mansoni (adult S. mansoni)	EC50 (adult S. mansoni)	EC50 (juvenile S. mansoni)	stability under warm and moist conditions [1]	EC50 [2]	reduction of SH-SY5Y cell viability (SYTOX) (SH-SY5Y cells)	drug effect at 50 µM on S. mansoni NTS ([2]; highest tested concentration 50 µM)
O=C([c-]1cccc1)N1CCN(c2ncc([N+](=O)[O-])s2)C1=O.[Fe+2].c1cc[cH-]c1 [Compound A2]	36.97%	46.61%	56.40%	more active	8.2 µM	6.35 µM	stable	2000 nM		
O=C(Nc1ncc([N+](=O)[O-])s1)[c-]1cccc1.[Fe+2].c1cc[cH-]c1 [Compound A1]				No drug effect	> 50 µM			> 50000 nM	did not alter SH‐SY5Y cell viability; also recorded: inactive	No drug effect
